Tested on: human platelets
Test: inhibition of aggregation of human platelets ex vivo
Format: cell-based
Details: Platelet, read-out: IC50, inhibit aggregation of human platelets ex vivo

| IC50 [nM] | SMILES |
| --- | --- |
| 1 to 10 | COc1ccc(-c2cccc(Oc3ccc([N+](=O)[O-])cc3S(=O)(=O)NC(=O)NC(C)(C)C)c2)cc1 [TP20] |
| 1 to 10 | CC(C)(C)NC(=O)NS(=O)(=O)c1cc(C#N)ccc1Oc1cccc(-c2ccc(OC(F)(F)F)cc2)c1 [NTP43] |

— patent US20250302848A1, “DRUG-IN-CAPSULE FORMULATIONS OF THROMBOXANE RECEPTOR ANTAGONISTS” (ATXA Therapeutics, Ltd, priority 2024, published 2025)
